# Results as given in patent publication US20060228417A1, “Mucoadhesive composition comprising polyacrylate and chemoattractant” (priority 2003, published 2006).
# Where no end group is shown, it is not given here.
# Experiments:
# [1] = system: DC in organotypic cultures of HPV-transformed keratinocytes; assay: DC infiltration depth in organotypic cultures of HPV-transformed keratinocytes; format: cell-based, human; settings: 48 hours after chemoattractant addition; GM-CSF 800 U/ml, MCP-1 500 ng/ml, HNP2 750 ng/ml (FIG. 6A)
# From the text: (§1) DC were generated from the adherent fraction of human PBMC (Peripheral Blood Mononuclear Cells) with 800 U/ml GM-CSF (Novartis, Brussels) and 20 U/ml IL-4 (Biosource Europe, Nivelles, Belgium), as previously described (16). DC generated for this study constituted a 90% pure cell population based on several criteria including morphology, forward-scatter and side-scatter values observed by FACS (Fluorescence Activated Cell Sorter) analysis and surface phenotype (CD1a+, CD14−, CD4+, CD54+, . . . ).
# Organotypic cultures of HPV-transformed keratinocytes (SiHa cell line (10)) were prepared as previously reported (17). After a 2 week stratification of keratinocytes, labeled DC were seeded on top of the in vitro formed epithelium at a concentration of 2×10^5 cells/50 μl of culture medium. The organotypic culture was then placed on the polycarbophil gel containing or not 800 U/ml of GM-CSF. In order to maintain the culture, the polycarbophil gel (1.5 w/w) was prepared by dispersing the Noveon AA1 in keratinocyte growth medium. […]
# The density of DC migrating into the epithelial layer was assessed by the avidin-biotin-peroxidase technique (Vectastain ABC kit, Vector laboratories, Burlingame, Calif.) with an anti-CD1a monoclonal antibody (clone NA1/34 from Dako, Glostrup, Denmark). […] The DC infiltration in organotypic cultures was evaluated by measuring the surface of immunostained cells with a computerized system of image analysis (CAS, Becton Dickinson, Erembodegem, Belgium) following a method previously described (6). The entire surface of each culture section was analyzed and 5 sections of each culture were stained with anti-CD1a. The positive surface was expressed as the percentage of the total surface analyzed. In additional experiments, the LC/DC infiltration depth in the organotypic culturs was evaluated by measuring the distance between the top of the epithelium and individual DC with a computerized system of image analysis (CAS, Becton Dikinson, Erembodegem, Belgium). We then calculated the ratio between the infiltration depth and the thickness of the culture. […]
# [2] = system: human DC in xenografts of HPV-transformed keratinocytes (CasKi cell line); assay: Xenograft assay in NOD/SCID mice: DC recruitment into transplants of HPV-transformed keratinocytes; format: in vivo
# Protocol: HPV-transformed keratinocytes (2×10^5, CasKi cell line, ATCC, CRL-1550) were plated on collagen gel (2 mg/ml of type I collagen isolated from rat tail tendons) inserted in Teflon rings (Renner, Dannstadt, Germany) and maintained in culture for one day before transplantation onto mice. Twelve-week-old NOD-scid/scid mice were used for this study. They were housed under sterile conditions and water and feed were provided ad libitum. Before transplantation, the cells were washed and the medium was drained. […] Fluorescent DC were counted in the epithelium and, after anti-keratin immunolabeling, the epithelial surface was evaluated with a computerized system of image analysis (CAS, Becton Dickinson, Erembodegem, Belgium). Infiltration results were expressed as numbers of DC per mm^2 of epithelium. […]
# Graft cryosections (5 μm in thickness) were fixed in acetone at −20° C. and in 80% methanol at 4° C. […] After washes in PBS, coverslips were mounted and labeling was analysed under an microscope equipped with epifluorescence optics.
# A control group of mice was treated with PBS alone. […] The DC infiltration in transplants was assessed by looking for stained DC in histological sections. […] Quantitative analysis of DC infiltration was performed by determining the number of DC per mm2 of epithelial tissue.
# [3] = system: DC in organotypic cultures of HPV-transformed keratinocytes (SiHa cell line); assay: DC infiltration into organotypic cultures of HPV-transformed keratinocytes (CD1a labeled surface); format: cell-based, human; settings: 800 U/ml GM-CSF, 48 h
# From the text: as §1
# The DC were labeled with a lipophilic fluorescent marker (CM-DiL, Molecular Probes, Leiden, The Netherlands) according to a previously described procedure with minor modifications. Briefly, 4×106 DC were resuspended in 1 ml of PBS and heated to 37° C. […]
# The density of DC migrating into the epithelial layer was assessed by the avidin-biotin-peroxidase technique (Vectastain ABC kit, Vector laboratories, Burlingame, Calif.) with an anti-CD1a monoclonal antibody (clone NA1/34 from Dako, Glostrup, Denmark). […] The DC infiltration in organotypic cultures was evaluated by measuring the surface of immunostained cells with a computerized system of image analysis (CAS, Becton Dickinson, Erembodegem, Belgium) following a method previously described (6). The entire surface of each culture section was analyzed and 5 sections of each culture were stained with anti-CD1a. […]
Substance,DC infiltration depth in organotypic culture [1],recruitment of DC in the tumor grafts ([2]; GM-CSF applied in transplantation chamber versus control mice (FIG. 5)),"DC infiltration in the grafts, number of DC per mm2 of epithelial tissue ([2]; NOD-SCID mice, 200 μl injected twice into transplantation chamber, 4×10^5 U/ml or U/g, mean ± SD (n=5))","DC infiltration, CD1a labeled surface ([3]; mean ± SD (n=5))",density of fluorescent-labeled DC within the epithelial sheet ([3]; versus absence of GM-CSF (FIG. 4))
granulocyte macrophage—colony stimulating factor [GM-CSF],significant increase in the density of DC observed in the epithelial layer,significant (p<0.001) recruitment of DC,16.6±14.6 DC/mm2,28.33±8.11 % of CD1a labeled surface,significant increase in the density of DC
"Human Neutrophil Peptide-2 (CYCRIPACIAGERRYGTCIYQGRLWAFCC; ends and bridges not checked; cysteine pairing not given here; UniProt P59665 66-94, looked up) [HNP2, human neutrophil defensin 2, Sigma-Aldrich]",reached an infiltration level equivalent to that obtained with GM-CSF,–,–,–,–
Monocyte Chemotactic Protein 1 [MCP1],reached an infiltration level equivalent to that obtained with GM-CSF,–,–,–,–
